Reference: patent publication US20130123248A1, “PHARMACOLOGICAL MODULATION OF POSITIVE AMPA RECEPTOR MODULATOR EFFECTS ON NEUROTROPHIN EXPRESSION” (The Regents of the University of California, priority 2006, published 2013)
Entries after “also recorded” stand apart in the source; their conditions may differ.

Columns and labels:
[1] = tested on: mature BDNF protein; assay: Western blot for mature BDNF protein in organotypic hippocampal cultures; type: cell-based, rat; settings: 24 h; CX614 50 μM
Protocol: Cultured hippocampal slices were prepared from rat pups (9 d postnatal) essentially as described by Lauterborn et al. (Lauterborn et al., 2000, J Neurosci 20(1):8-21). Slices were explanted onto Millicel-CM biomembrane inserts (Millipore, Bedford, Mass.; 6 slices/membrane) in a 6-well culture cluster plate (Corning, Cambridge, Mass.) containing sterile media (1 ml/well) consisting of minimum essential media, 30 mM dextrose, 30 mM HEPES, 5 mM Na2HCO3, 3 mM glutamine, 0.5 mM ascorbic acid, 2 mM CaCl2, 2.5 mM MgSO4, 1 mg/l insulin and 20% horse serum (pH 7.2; all reagents from Sigma, St. Louis, Mo.) and maintained for 10-18 d in a humidified incubator at 37° C. in 5% CO2. Media was changed three times/week. […]
For protein determinations, drug-treated and vehicle-treated hippocampal slice cultures were homogenized in RIPA (Radio-Immunoprecipitation Assay) buffer containing 10 mM Tris, pH 7.2, 158 mM NaCl, 1 mM EDTA, 0.1% SDS, 1% sodium deoxycholate, 1% triton-X, Complete Protease Inhibitor Cocktail (Roche Diagnostics; Indianapolis, Ind.), and Phosphatase Inhibitor Cocktails 1 and 2 (P2850 and 5726, Sigma), normalized for protein content using the Bio-Rad protein assay, and analyzed by Western blot analysis. […] Binding of anti-BDNF antibodies to BDNF was detected by enhanced chemiluminescence. Band densities were quantified using ImageQuant software (Molecular Dynamics, Sunnyvale, Calif.). […]

[2] = tested on: GluR2 mRNA; assay: GluR2 mRNA in situ hybridization in hippocampal slice cultures; type: cell-based, rat; settings: 48 h
[3] = tested on: GluR1 mRNA; assay: GluR1 mRNA in situ hybridization in hippocampal slice cultures; type: cell-based, rat; settings: 48 h
[4] = tested on: BDNF mRNA; assay: BDNF mRNA in situ hybridization in cultured rat hippocampal slices; type: cell-based; settings: for hybridization to BDNF mRNA, principal hippocampal cell layers, entorhinal cortex, neocortex: CX614 50 μM
Protocol: Cultured hippocampal slices were prepared from rat pups (9 d postnatal) essentially as described by Lauterborn et al. (Lauterborn et al., 2000, J Neurosci 20(1):8-21). Slices were explanted onto Millicel-CM biomembrane inserts (Millipore, Bedford, Mass.; 6 slices/membrane) in a 6-well culture cluster plate (Corning, Cambridge, Mass.) containing sterile media (1 ml/well) consisting of minimum essential media, 30 mM dextrose, 30 mM HEPES, 5 mM Na2HCO3, 3 mM glutamine, 0.5 mM ascorbic acid, 2 mM CaCl2, 2.5 mM MgSO4, 1 mg/l insulin and 20% horse serum (pH 7.2; all reagents from Sigma, St. Louis, Mo.) and maintained for 10-18 d in a humidified incubator at 37° C. in 5% CO2. Media was changed three times/week. All experiments with the […]® (Cortex Pharmaceuticals) and mGluR5 antagonist (gift from FRAXA Research Foundation) began on days 11-12 in culture and were performed essentially as described by Lauterborn et al. (Lauterborn et al., 2000, J Neurosci 20(1):8-21) and Huber et al. (Huber et al., 2002, Proc Natl Acad Sci USA 99(11):7746-50). […]® were dissolved in 100% dimethylsulfoxide (DMSO; Sigma) and stored at -20° C. MPEP was dissolved in 100% DMSO. […] For controls, cultures were either untreated or treated with equivalent concentrations of vehicle (i.e., DMSO at final concentrations of 1:2,000-1:10,000). […] The cRNA to BDNF exon V was generated from PvuII-digested recombinant plasmid pRl 112-8 (Isackson et al., 1991, Neuron 6:937-948), yielding a 540 base length probe with 384 bases complementary to BDNF exon V-containing mRNA (Timmusk et al., 1993, Neuron 10:475-489). In situ hybridization was performed essentially as described by Lauterborn et al. (Lauterborn et al., 2000, J Neurosci 20(1):8-21; Lauterborn et al., 1994, Mol Cell Neurosci 5:46-62). Briefly, for in situ hybridization analyses, treatments were terminated by slice fixation with 4% paraformaldehyde in 0.1 M phosphate buffer, pH 7.2 (PPB). Cultures were re-sectioned parallel to the broad explant surface, slide-mounted, and processed for the in situ hybridization localization of BDNF mRNA using the ^35S-labeled BDNF cRNA probe described above. Following hybridization, the tissue was processed for film (Kodak Biomax) autoradiography. Quantification of in situ hybridization was performed essentially as described by Lauterborn et al. (Lauterborn et al., 2000, J Neurosci 20(1):8-21). Briefly, for quantification of in situ hybridization, hybridization densities were measured from film autoradiograms, with labeling densities calibrated relative to film images of ^14C-labeled standards (μCi/g), using the AIS system (Imaging Research Inc.). Significance was determined using the two-way ANOVA followed by Student-Newman-Keuls (SNK) or Student's t tests for individual comparisons.

[5] = tested on: rat fear-potentiated startle model of anxiety; settings: cited from earlier work
[6] = biological target: mGluR5 (Homo sapiens, UniProt P41594); settings: cited from earlier work
Chain of mGluR5 (P41594 21-1212): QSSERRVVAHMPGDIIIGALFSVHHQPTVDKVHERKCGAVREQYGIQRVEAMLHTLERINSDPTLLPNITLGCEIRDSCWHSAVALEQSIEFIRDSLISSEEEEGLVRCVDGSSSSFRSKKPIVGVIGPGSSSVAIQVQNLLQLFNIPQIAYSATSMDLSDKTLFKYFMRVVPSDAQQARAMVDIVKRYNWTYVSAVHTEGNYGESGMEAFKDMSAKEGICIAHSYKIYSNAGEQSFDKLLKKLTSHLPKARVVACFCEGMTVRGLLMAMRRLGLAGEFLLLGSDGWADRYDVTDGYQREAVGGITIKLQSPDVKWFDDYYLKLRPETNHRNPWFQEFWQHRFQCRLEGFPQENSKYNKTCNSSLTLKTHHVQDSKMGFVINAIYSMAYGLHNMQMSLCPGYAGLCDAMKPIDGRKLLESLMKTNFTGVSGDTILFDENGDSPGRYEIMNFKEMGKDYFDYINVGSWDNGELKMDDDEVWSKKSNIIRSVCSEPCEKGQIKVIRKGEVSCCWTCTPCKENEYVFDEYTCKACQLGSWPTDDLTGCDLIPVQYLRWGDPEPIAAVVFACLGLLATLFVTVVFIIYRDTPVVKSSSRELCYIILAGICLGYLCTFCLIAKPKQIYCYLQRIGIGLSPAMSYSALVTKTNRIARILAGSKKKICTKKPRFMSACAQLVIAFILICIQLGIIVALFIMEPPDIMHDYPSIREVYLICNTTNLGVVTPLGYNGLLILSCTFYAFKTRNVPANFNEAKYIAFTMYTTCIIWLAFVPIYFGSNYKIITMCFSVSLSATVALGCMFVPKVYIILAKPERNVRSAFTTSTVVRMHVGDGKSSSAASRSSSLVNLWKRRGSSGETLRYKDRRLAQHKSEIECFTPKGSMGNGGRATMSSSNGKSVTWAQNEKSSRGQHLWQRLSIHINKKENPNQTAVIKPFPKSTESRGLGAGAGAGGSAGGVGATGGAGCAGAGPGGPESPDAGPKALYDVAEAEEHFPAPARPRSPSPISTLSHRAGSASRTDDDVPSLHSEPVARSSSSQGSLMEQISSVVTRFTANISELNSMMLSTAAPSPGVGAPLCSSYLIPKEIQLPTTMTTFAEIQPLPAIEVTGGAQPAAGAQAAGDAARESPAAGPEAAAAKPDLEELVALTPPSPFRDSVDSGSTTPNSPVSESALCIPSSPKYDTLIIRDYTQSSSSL

[7] = CX614 (20 μM in FIG. 6 legend, 50 μM in Example 6), MPEP 50 μM or both

## O=C1c2cc3c(cc2OC2CCCN12)OCCO3 (stereo not shown) [CX614, 2H,3H,6aH-pyrrolidino[2″,1″-3′,2′]1,3-oxazino[6′,5′-5,4]benzo[e]1,4-dioxan-10-one]
[1]
  mature BDNF protein levels above control levels: 133%
[2]; CX614 20 μM (FIG. 6 legend)
  reduction of GluR2 mRNA levels, CA1 stratum pyramidale: ~50%
[2]; CX614 50 μM (Example 6)
  reduction of GluR2 mRNA levels, CA1 pyramidal cell layer, compared to control: 40-45%
[3]; CX614 20 μM (FIG. 6 legend)
  reduction of GluR1 mRNA levels, CA1 stratum pyramidale: 40%
[3]; CX614 50 μM (Example 6)
  reduction of GluR1 mRNA levels, CA1 pyramidal cell layer, compared to control: 40-45%
[4]; 3 h, 10 μM CX614
  BDNF cRNA labeling, granule cells: modest increase
[4]; 3 h, CX614 50 μM with or without MPEP 50 μM
  BDNF mRNA levels in CA1 stratum pyramidale, effect in words: small but non-significant increased
[4]; 3 h, CX614 50 μM with or without MPEP 50 μM, vs control
  increase in BDNF mRNA, hippocampal granule cells (stratum granulosum): 6.5 fold
[4]; 3 h, CX614 10, 20 or 50 μM
  BDNF mRNA, granule cells: increased by all three doses
  BDNF mRNA, pyramidal cells of CA1 and CA3: only increased with the 50 μM concentration; also recorded: only 50 μM CX614 elicited significant increases
[4]; 3 h, higher doses of CX614 (20, 50 μM)
  BDNF cRNA labeling, granule cells: more dramatic increases
[4]; 24 h, CX614 20 μM with or without MPEP 50 μM
  BDNF mRNA levels, CA1 pyramidal cells: small but non-significant increase
[4]; 6 h
  hybridization to BDNF mRNA, principal hippocampal cell layers, entorhinal cortex, neocortex: increased; also recorded: markedly elevated
[4]; 24 h continuous treatment
  hybridization to BDNF mRNA, principal hippocampal cell layers, entorhinal cortex, neocortex: still elevated above control densities; also recorded: begin to decline

## Cc1nc(C#Cc2cccnc2)cs1 [MTEP, 3-[(2-methyl-1,3-thiazol-4-yl)ethynyl]pyridine]
[5]
  potency relative to MPEP: 5 fold

## C=Cc1cncc(C#Cc2csc(C)n2)c1 [Iso et al. compound 59, 3-[(2-methyl-4-thiazoly)ethynyl]-5-vinylpyridine]
[6]
  antagonistic potency relative to MTEP: 230 times

## Cc1cccc(C#Cc2ccccc2)n1 [MPEP, 2-methyl-6-(phenylethynyl)pyridine]
[2]; [7]
  GluR2 mRNA levels, CA1, effect in words: no significant effect; also recorded: small but non-significant increase
[3]; [7]
  GluR1 mRNA levels, CA1, effect in words: no significant effect
[4]; 3 h, MPEP 50 μM alone
  BDNF mRNA levels in the granule cell layer / any field, effect in words: unaffected; also recorded: no effect in any field
